This is an account of results in US8143259B2, “Cold menthol receptor antagonists” (Janssen Pharmaceutica, NV, priority 2008, dated 2012).

pIC50: −log10 of the molar value. Several values for one entry are separate records, joined by “and”; a condition that tells them apart may be missing. Equal entries are not always repeated.

The assay concerns the target T1, canine TRPM8 (Canis lupus familiaris, UniProt Q1A7N1).
T1 construct: expressed in transfected cells
As to the kind of experiment: In Vitro Canine TRPM8 Functional Assay (Ca2+ fluorescence, icilin activation). It counts as cell-based. To be noted: for inhibition at 0.2 µM: HEK293, 0.2 μM compound; for inhibition at 0.2 µM / % Inh @ 0.2 μM / inhibition at 0.5 µM / inhibition at 1 µM / % Inh @ 0.5 μM: canine TRPM8 HEK293, icilin; for % Inh @ 0.2 μM: 0.2 μM compound; for pIC50: HEK293 cells stably expressing canine TRPM8, icilin activation, Ca2+ fluorescence; for inhibition at 0.5 µM: HEK293, 0.5 μM compound; for inhibition at 1 µM: HEK293, 1 μM compound; for % Inh @ 0.5 μM: 0.5 μM compound. The procedure: The functional activity of compounds of the formula (I) was determined by measuring changes in intracellular calcium concentration using a Ca^2+-sensitive fluorescent dye. The changes in fluorescent signal were monitored by a fluorescence plate reader, either a FLIPR™ (Molecular Devices) or FDSS (Hamamatsu). Increases in intracellular Ca^2+ concentration were readily detected upon activation with icilin.
HEK293 cells stably expressing canine TRPM8 were routinely grown as monolayers in Dulbecco's minimum essential medium supplemented with 10% FBS, 2 mM L-glutamine, 100 units/mL penicillin, 100 ug/mL streptomycin and 400 μg/mL G418. Cells were maintained in 5% CO2 at 37° C. At 24 hrs prior to assay, cells were seeded in black wall, clear-base poly-D-lysine coated 384-well plates (BD Biosciences, NJ, USA) at a density of 5,000 cells per well in culture medium and grown overnight in 5% CO2 at 37° C. On assay day, growth media was removed and cells were loaded with Calcium 3 Dye (Molecular Devices) for 35 min at 37° C., under 5% CO2 and then for 25 min at room temperature and atmosphere. Subsequently, cells were tested for agonist-induced increases in intracellular Ca^2+ levels using FLIPR™ or FDSS. Cells were challenged with compounds of the formula (I) (at varying concentrations) and intracellular Ca^2+ was measured for 5 min prior to the addition of icilin to all wells to achieve a final concentration that produces approximately an 80% maximal response.
Maximal fluorescence intensity (FI) achieved upon addition of icilin was exported from the FLIPR or FDSS software and further analyzed using GraphPad Prism 3.02 (Graph Pad Software Inc., CA, U.S.A.). Basal FI was subtracted prior to normalizing data to percent of maximal response. Curves were generated using the average of quadruplicate wells for each data point, were analyzed using nonlinear regression of either sigmoidal dose response or sigmoidal dose response (variable slope).

T1 sequence (Q1A7N1 1-1104): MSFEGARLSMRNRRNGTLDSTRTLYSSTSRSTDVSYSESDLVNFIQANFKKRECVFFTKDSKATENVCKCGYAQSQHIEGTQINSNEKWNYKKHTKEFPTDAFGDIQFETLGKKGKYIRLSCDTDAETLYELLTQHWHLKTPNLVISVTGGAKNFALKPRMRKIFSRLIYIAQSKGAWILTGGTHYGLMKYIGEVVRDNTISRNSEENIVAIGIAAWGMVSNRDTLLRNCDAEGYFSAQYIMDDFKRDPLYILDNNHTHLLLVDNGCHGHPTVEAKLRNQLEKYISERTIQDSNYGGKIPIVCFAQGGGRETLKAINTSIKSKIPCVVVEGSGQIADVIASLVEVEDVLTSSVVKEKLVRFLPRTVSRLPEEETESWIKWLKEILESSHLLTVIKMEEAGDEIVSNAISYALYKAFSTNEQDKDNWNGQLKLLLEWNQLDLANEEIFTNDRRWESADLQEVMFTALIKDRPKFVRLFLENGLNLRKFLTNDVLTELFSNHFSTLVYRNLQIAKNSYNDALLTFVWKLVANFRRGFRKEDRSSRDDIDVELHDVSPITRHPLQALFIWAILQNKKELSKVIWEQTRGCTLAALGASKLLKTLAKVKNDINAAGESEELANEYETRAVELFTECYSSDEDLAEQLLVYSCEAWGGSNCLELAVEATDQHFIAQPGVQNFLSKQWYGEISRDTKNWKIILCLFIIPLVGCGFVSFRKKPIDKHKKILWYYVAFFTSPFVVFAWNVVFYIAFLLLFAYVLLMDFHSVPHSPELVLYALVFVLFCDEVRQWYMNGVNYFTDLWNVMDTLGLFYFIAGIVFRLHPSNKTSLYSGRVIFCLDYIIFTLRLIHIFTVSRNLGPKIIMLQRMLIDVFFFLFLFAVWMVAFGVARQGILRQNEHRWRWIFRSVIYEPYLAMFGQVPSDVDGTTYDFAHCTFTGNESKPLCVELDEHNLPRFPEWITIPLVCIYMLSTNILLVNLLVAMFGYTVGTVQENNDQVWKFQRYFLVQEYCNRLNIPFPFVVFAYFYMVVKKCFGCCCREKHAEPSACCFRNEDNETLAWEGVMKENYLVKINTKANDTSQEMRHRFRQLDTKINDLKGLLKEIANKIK

Take `CC(C)(O)c1ccccc1OC(C(=O)N1CCCC1c1ccccc1F)c1ccc(C(F)(F)F)cc1` (stereo not drawn) [Cpd 199, 1-[2-(2-Fluoro-phenyl)-pyrrolidin-1-yl]-2-[2-(1-hydroxy-1-methyl-ethyl)-phenoxy]-2-(4-trifluoromethyl-phenyl)-ethanone]: the inhibition at 0.2 µM amounted to 62%. Same read-out and setting: as for `O=C(C(Nc1ccccc1F)c1ccc(-c2ccc(-c3nnn[nH]3)cc2)cc1)N1CCC[C@H]1c1ccccc1F` (stereo partly drawn) [Cpd 354, 2-(2-Fluoro-phenylamino)-1-[(2S)-2-(2-fluoro-phenyl)-pyrrolidin-1-yl]-2-[4′-(1H-tetrazol-5-yl)-biphenyl-4-yl]-ethanone], the figure is 53%. Compound `O=C(C(Nc1ccccc1F)c1ccc(C(F)(F)F)cc1)N1CCCC1c1cccc(F)c1` (single isomer, unassigned) [Cpd 187] gave a negative logarithm of the IC50 (pIC50) of 8.40. Further, the “% Inh @ 0.2 μM” value (0.2 µM) was found to be 98%. As to `O=C(C(Nc1ccccc1F)c1ccc(N2CCOCC2)cc1)N1CCCC1c1ccccc1F` (stereo not drawn) [Cpd 293], the inhibition at 0.2 µM came to 86% and the pIC50 was 7.96. For the compound `O=C(C(Nc1ccccc1)c1ccc(Cl)cc1)N1Cc2ccccc2C1` (stereo not drawn) [Cpd 87], the inhibition at 0.5 µM worked out at 97% and the pIC50 was 7.09. Taken in the same sequence, the figures for `COc1ccccc1C1CCCN1C(=O)C(Nc1cccc(F)c1)c1ccc(C(F)(F)F)cc1` (stereo not drawn) [Cpd 79] were 98% and 7.30. `CN(c1ccccc1F)C(C(=O)N1Cc2ccccc2C1)c1ccc(C(F)(F)F)cc1` (stereo not drawn) [Cpd 229] had a negative logarithm of the IC50 (pIC50) of 7.35. Take `Cc1nc2ccc(C(Nc3ccccc3F)C(=O)N3CCCC3c3ccccc3F)cc2s1` (single isomer, unassigned) [Cpd 340]: the inhibition at 0.2 µM came out at 101% and the negative-log IC50 (pIC50) is 8.30.

Consider `O=C(C(Nc1ccccc1F)c1ccc2cccnc2c1)N1CCCC1c1ccccc1F` (stereo not drawn) [Cpd 284], for which the inhibition at 0.2 µM came out at 92%; the negative logarithm of the IC50 (pIC50) was 7.70 and 7.59. In addition, the “% Inh @ 0.2 μM” value (0.2 µM) is 95%.

For the compound `O=C(C(Nc1ccccc1F)c1cc2ccccc2s1)N1CCCC1c1ccncc1` (single isomer, unassigned) [Cpd 322], the inhibition at 0.2 µM came to 89% and the pIC50 is 8.10. Taken in the same sequence, the figures for `CC(C)(C)OC(=O)N1CC=C(c2ccc(C(Nc3ccccc3F)C(=O)N3CCCC3c3ccccc3F)cc2)CC1` (stereo not drawn) [Cpd 299, 4-(4-{1-(2-Fluoro-phenylamino)-2-[2-(2-fluoro-phenyl)-pyrrolidin-1-yl]-2-oxo-ethyl}-phenyl)-3,6-dihydro-2H-pyridine-1-carboxylic acid tert-butyl ester] were 99% and 7.19. Consider `O=C(O)c1ccc(-c2ccc(C(Nc3ccccc3F)C(=O)N3CCCC3c3ccccc3F)cc2)cc1` (mixture of isomers) [Cpd 337], for which the negative logarithm of the IC50 (pIC50) is 7.25. The “% Inh @ 0.2 μM” value (0.2 µM) was determined as 91%. As to `COC(=O)c1ccc(C2CCCN2C(=O)C(Nc2ccccc2F)c2ccc(C(F)(F)F)cc2)cc1` (stereo not drawn) [Cpd 220], the inhibition at 0.2 µM was 96% and the pIC50 is 7.32. The like results for `O=C(C(Oc1ccccc1F)c1ccc(C(F)(F)F)cc1)N1CCCC1c1ccccc1F` (stereo not drawn) [Cpd 263, 2-(2-Fluoro-phenoxy)-1-[2-(2-fluoro-phenyl)-pyrrolidin-1-yl]-2-(4-trifluoromethyl-phenyl)-ethanone] were, in that order, 84% and 6.96. As to `COc1ccccc1C1CCCN1C(=O)C(Nc1ccccc1F)c1ccc(Br)cc1` (single isomer, unassigned) [Cpd 176], the pIC50 was 7.52. Further, the “% Inh @ 0.2 μM” value (0.2 µM) was 94%. Consider `O=C(C(Nc1cccc(F)c1F)c1ccc(Cl)cc1)N1CCCC1c1ccccc1Cl` (single isomer, unassigned) [Cpd 165], for which the inhibition at 0.5 µM amounted to 99% and the negative logarithm of the IC50 (pIC50) was 6.79. Taken in the same sequence, the figures for `O=C(C(Nc1ccccc1F)c1ccc(Cl)cc1)N1CCCC1c1ccccc1Cl` (stereo not drawn) [Cpd 110] were 98% and 7.26. For the compound `Cn1cc(C(Nc2ccccc2F)C(=O)N2CCCC2c2ccccc2F)c2ccccc21` (racemic) [Cpd 250], the “% Inh @ 0.2 μM” value was determined as 25%.

Regarding `CC(=O)Nc1ccc(C2CCCN2C(=O)C(Nc2ccccc2F)c2ccc(C(F)(F)F)cc2)cc1` (stereo not drawn) [Cpd 317], the inhibition at 0.2 µM worked out at 102% and the pIC50 was 8.52.

For `O=C(C(Nc1ccccc1F)c1ccc(C(F)(F)F)cc1)N1CCCC1c1ccccc1Cl` (stereo not drawn) [Cpd 188], the “% Inh @ 0.2 μM” value stood at 30%. As for `COC(=O)[C@@H]1CC[C@H](c2ccccc2)N1C(=O)C(Nc1c(F)cccc1F)c1ccc(Br)cc1` (single isomer, unassigned) [Cpd 204], the inhibition at 0.2 µM came to 47%. For the compound `O=C(C(Nc1ccccc1F)c1ccc(C(F)(F)F)cc1)N1Cc2ccccc2C1` (stereo not drawn) [Cpd 64], the inhibition at 0.2 µM was 100%; the inhibition at 0.5 µM worked out at 102%; the negative logarithm of the IC50 (pIC50) is 7.66 and 7.60. As to `O=C(C(Nc1ccccc1)c1ccc(C(F)(F)F)cc1)N1CCCC1c1cc2ccccc2[nH]1` (stereo not drawn) [Cpd 25], the inhibition at 0.5 µM was determined as 102% and the negative logarithm of the IC50 (pIC50) was 6.85. In the case of `O=C(C(c1ccc(C(F)(F)F)cc1)N1CCc2ccccc21)N1Cc2ccccc2C1` (stereo not drawn) [Cpd 230], the negative-log IC50 (pIC50) is 6.98. Consider `CC(C)(C)c1ccc(C(Nc2ccccc2)C(=O)N2CCC(O)(c3ccccc3)CC2)cc1` (stereo not drawn) [Cpd 3], for which the inhibition at 1 µM was 101% and the negative logarithm of the IC50 (pIC50) is 6.45. The like results for `CC(C)(C)c1ccc(C(Nc2ccccc2)C(=O)N2CCC(c3ccccc3)C2)cc1` (stereo not drawn) [Cpd 13] were, in that order, 103% and 6.49. Take `O=C(C(CNc1ccccc1)c1ccc(C(F)(F)F)cc1)N1CCCC1c1ccccc1` (mixture of isomers) [Cpd 94]: the negative-log IC50 (pIC50) was 6.79. Also, the “% Inh @ 0.5 μM” value (0.5 µM) was determined as 98%.

Regarding `O=C(C(Nc1ccc(F)cc1F)c1ccc(Cl)cc1)N1Cc2ccccc2C1` (stereo not drawn) [Cpd 126], the inhibition at 0.5 µM was 100% and the pIC50 is 6.95.

On to `CN1CCN(NC(=O)[C@H](Nc2ccccc2)c2ccc(C(C)(C)C)cc2)[C@H](c2ccccc2)C1` (relative stereo) [Cpd 56, (2RS*)-2-(4-tert-Butyl-phenyl)-N-[(2RS*)-4-methyl-2-phenyl-piperazin-1-yl]-2-phenylamino-acetamide], for which the “% Inh @ 0.5 μM” value was determined as 26%.

`O=C(C(Nc1ccccc1F)c1ccc(N2CCOCC2)nc1)N1CCCC1c1ccccc1F` (single isomer, unassigned) [Cpd 360]: the “% Inh @ 0.2 μM” value (0.2 µM) is 43%. `O=C(C(Cc1c(F)cccc1F)c1ccc(C(F)(F)F)cc1)N1CCCC1c1ccccc1F` (stereo not drawn) [Cpd 244, 3-(2,6-Difluoro-phenyl)-1-[2-(2-fluoro-phenyl)-pyrrolidin-1-yl]-2-(4-trifluoromethyl-phenyl)-propan-1-one]: the inhibition at 0.2 µM was 98% and the negative-log IC50 (pIC50) is 7.78. Turning to `CC(C)(C)c1ccc(C(Nc2ccccc2)C(=O)N2CCCCCC2c2ccccc2)cc1` (stereo not drawn) [Cpd 18], the inhibition at 1 µM worked out at 95.4% and the pIC50 is 6.46. Take `O=C(C(Nc1ccccc1)c1ccc(C(F)(F)F)cc1)N1CCCC1c1ccccc1Cl` (single isomer, unassigned) [Cpd 21]: the inhibition at 0.5 µM is 103% and the pIC50 was 6.76. Turning to `O=C(C(Nc1ccc(F)cc1)c1ccc(C(F)(F)F)cc1)N1CCCC1c1ccccc1` (single isomer, unassigned) [Cpd 75], the inhibition at 0.5 µM was 98% and the pIC50 was 7.70. For `O=C(C(Nc1ccccc1F)c1ccc(-c2ccccc2)nc1)N1CCC[C@H]1c1ccccc1F` (single isomer, unassigned) [Cpd 307], the inhibition at 0.2 µM came out at 102% and the pIC50 was 8.40. Take `COc1ccc(NC(C(=O)N2CCCC2c2ccccc2OC)c2ccc(Cl)cc2)cc1` (stereo not drawn) [Cpd 138]: the inhibition at 0.5 µM is 95% and the negative logarithm of the IC50 (pIC50) was 6.92. As to `O=C(C(Nc1ccccc1F)c1ccc(C(F)(F)F)cc1)N1CCCC1c1ccccc1Cl` (single isomer, unassigned) [Cpd 198], the negative logarithm of the IC50 (pIC50) was 7.72 and 7.46. Moreover, the “% Inh @ 0.2 μM” value (0.2 µM) was found to be 101%.

For the compound `CN(c1ccccc1F)C(C(=O)N1CCCC1c1ccccc1F)c1ccc(C(F)(F)F)cc1` (stereo not drawn) [Cpd 233], the “% Inh @ 0.2 μM” value worked out at 10%. For the compound `CC(C)(C)c1ccc(C(Nc2ccccc2)C(=O)N2CCCC2c2ccccn2)cc1` (stereo not drawn) [Cpd 55], the inhibition at 0.5 µM came to 99.9% and the negative logarithm of the IC50 (pIC50) was 6.68. Taken in the same sequence, the figures for `O=C([C@@H](Nc1ccccc1F)c1ccc(C(F)(F)F)cc1)N1CCC[C@H]1c1ccccc1F` (single isomer, unassigned) [Cpd 152] were 101% and 7.21.

As usually defined, the inhibition is the drop in the measured response relative to a control, in per cent. What is called pIC50 is the negative decadic logarithm of the IC50, by convention in mol/L.
